Assay results: PubChem BioAssay AID248 (DTP/NCI, 2004)
Several values for one entry are separate records, joined by “and”; a condition that tells them apart may be missing. Equal values may be shown once. Toxic doses and inconclusive results are not listed. No stated cut-off is given here; in the data, active means T/C of 150% or more; inactive means T/C below 125%.

System: L1210 leukemia ip in BDF1 mice, survival T/C
Experiment: NCI In Vivo Anticancer Drug Screen. Data for tumor model L1210 Leukemia (intraperitoneal) in B6D2F1 (BDF1) mice
Details: endpoint: mean survival time, higher = longer survival
Summary of the method: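 Tumor cells were implanted, animals were treated, and survival was followed. The result divides the treated measurement by the vehicle-control measurement.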

[1] = dose: 100.0 mg/kg/injection, schedule: Q01DX009 (ip), vehicle: gum acacia
[2] = dose: 100.0 mg/kg/injection, schedule: Q04DX003 (ip), vehicle: Klucel (hydroxypropylcellulose) (HPC)
[3] = dose: 100.0 mg/kg/injection, schedule: Q04DX003 (ip), vehicle: saline with Tween-80
[4] = dose: 200.0 mg/kg/injection, schedule: Q04DX003 (ip), vehicle: Klucel (hydroxypropylcellulose) (HPC)
[5] = dose: 200.0 mg/kg/injection, schedule: Q04DX003 (ip), vehicle: saline with Tween-80
[6] = dose: 400.0 mg/kg/injection, schedule: Q04DX003 (ip), vehicle: Klucel (hydroxypropylcellulose) (HPC)
[7] = dose: 400.0 mg/kg/injection, schedule: Q04DX003 (ip), vehicle: saline with Tween-80
[8] = dose: 50.0 mg/kg/injection, schedule: Q01DX001 (ip), vehicle: saline
[9] = dose: 100.0 mg/kg/injection, schedule: Q01DX001 (ip), vehicle: saline
[10] = dose: 200.0 mg/kg/injection, schedule: Q01DX001 (ip), vehicle: saline
[11] = dose: 400.0 mg/kg/injection, schedule: Q01DX001 (ip), vehicle: saline
[12] = dose: 50.0 mg/kg/injection, schedule: Q01DX001 (ip), vehicle: carboxymethylcellulose (CMC)
[13] = dose: 100.0 mg/kg/injection, schedule: Q01DX001 (ip), vehicle: carboxymethylcellulose (CMC)
[14] = dose: 200.0 mg/kg/injection, schedule: Q01DX001 (ip), vehicle: carboxymethylcellulose (CMC)
[15] = dose: 400.0 mg/kg/injection, schedule: Q01DX001 (ip), vehicle: carboxymethylcellulose (CMC)
[16] = dose: 100.0 mg/kg/injection, schedule: Q01DX009 (ip), vehicle: saline with Tween-80
[17] = dose: 200.0 mg/kg/injection, schedule: Q01DX009 (ip), vehicle: saline with Tween-80
[18] = dose: 100.0 mg/kg/injection, schedule: Q01DX009 (ip), vehicle: Klucel (hydroxypropylcellulose) (HPC)
[19] = dose: 200.0 mg/kg/injection, schedule: Q01DX009 (ip), vehicle: Klucel (hydroxypropylcellulose) (HPC)

Measured: T/C

O=C(O)C(Cl)c1ccccc1 (stereo unspecified)
inactive: dose: 25.0 mg/kg/injection, schedule: Q01DX009 (ip), vehicle: gum acacia 114 % of control | dose: 50.0 mg/kg/injection, schedule: Q01DX009 (ip), vehicle: gum acacia 109 % of control | [1] 106 % of control | [2] 92 % of control | [3] 95 % of control | [4] 93 % of control | [5] 101 % of control | [6] 97 % of control | [7] 88 % of control

COc1ccc([I+]c2ccccc2C(=O)[O-])cc1OC
inactive: [8] 98 % of control | [9] 96 % of control | [10] 104 % of control | [11] 98 % of control

CN(C)C(=S)Oc1ccc(C(C)(C)C)cc1
inactive: dose: 100.0 mg/kg/injection, schedule: Q01DX001 (ip), vehicle: Klucel (hydroxypropylcellulose) (HPC) 96 % of control | dose: 200.0 mg/kg/injection, schedule: Q01DX001 (ip), vehicle: Klucel (hydroxypropylcellulose) (HPC) 98 % of control | dose: 400.0 mg/kg/injection, schedule: Q01DX001 (ip), vehicle: Klucel (hydroxypropylcellulose) (HPC) 90 % of control

COC(=O)C1OC(n2cnc3c(=S)nc[nH]c32)C(OC(C)=O)C(OC(C)=O)C1OC(C)=O (stereo unspecified)
inactive: [12] 103 % of control | [13] 100 % of control | [14] 100 % of control | [15] 94 % of control

CCOc1cc(C(F)(F)F)nc2c3c(cc(OC)c12)CCCN3CC
inactive: [3] 102 % of control | [5] 100 % of control | [7] 97 % of control

O=C(O)c1ccc(OCCOc2ccccc2)c(Cl)c1
inactive: [1] 97 % of control | dose: 200.0 mg/kg/injection, schedule: Q01DX009 (ip), vehicle: gum acacia 88 % of control | dose: 400.0 mg/kg/injection, schedule: Q01DX009 (ip), vehicle: gum acacia 92 % of control

CCOC(=O)/C(C#N)=C1/CC2CCC1(C)OC2(C)C (stereo unspecified)
inactive: [2] 98 % of control | [4] 96 % of control | [6] 102 % of control

CCOC(=O)CNC(=O)OCCN1CCNC1=S
inactive: [16] 98 % of control | [17] 100 % of control | dose: 400.0 mg/kg/injection, schedule: Q01DX009 (ip), vehicle: saline with Tween-80 101 % of control

OCCSc1ccc(Cl)cc1
inactive: dose: 100.0 mg/kg/injection, schedule: Q01DX009 (ip), vehicle: other 97 % of control | dose: 200.0 mg/kg/injection, schedule: Q01DX009 (ip), vehicle: other 95 % of control

c1ccc(N=N/C(=N/Nc2ccccc2)c2ccccc2)cc1
inactive: dose: 50.0 mg/kg/injection, schedule: Q01DX009 (ip), vehicle: saline with Tween-80 90 % of control | [16] 96 % of control

N#CC1CC=CCC1 (stereo unspecified)
inactive: dose: 6.25 mg/kg/injection, schedule: Q01DX009 (ip), vehicle: saline 113 % of control | dose: 6.25 mg/kg/injection, schedule: Q04DX003 (ip), vehicle: saline 101 % of control | dose: 12.5 mg/kg/injection, schedule: Q01DX009 (ip), vehicle: saline 121 % of control | dose: 12.5 mg/kg/injection, schedule: Q04DX003 (ip), vehicle: saline 90 % of control | dose: 25.0 mg/kg/injection, schedule: Q01DX009 (ip), vehicle: saline 103 % of control | dose: 25.0 mg/kg/injection, schedule: Q04DX003 (ip), vehicle: saline 113 % of control

CS(=O)(=O)Nc1nc2ccccc2[nH]1
inactive: dose: 50.0 mg/kg/injection, schedule: Q01DX009 (ip), vehicle: saline 96 % of control | dose: 100.0 mg/kg/injection, schedule: Q01DX009 (ip), vehicle: saline 93 % of control | dose: 200.0 mg/kg/injection, schedule: Q01DX009 (ip), vehicle: saline 86 % of control

Brc1ccc(C2=CSC3=NCCN23)cc1
inactive: dose: 25.0 mg/kg/injection, schedule: Q04DX003 (ip), vehicle: Klucel (hydroxypropylcellulose) (HPC) 96 % of control | dose: 50.0 mg/kg/injection, schedule: Q04DX003 (ip), vehicle: Klucel (hydroxypropylcellulose) (HPC) 96 % of control

CN(Cc1ccccc1)c1ccccc1
inactive: [8] 97 % of control | [9] 97 % of control | [10] 97 % of control | [11] 97 % of control

NCc1cccc2ccccc12
inactive: dose: 62.5 mg/kg/injection, schedule: Q01DX001 (ip), vehicle: saline 109 % of control | [9] 112 % of control | dose: 125.0 mg/kg/injection, schedule: Q01DX001 (ip), vehicle: saline 104 % of control | [10] 96 % of control

C#CCC#Cc1ccccc1
inactive: [16] 89 % of control | [17] 92 % of control

Cc1ccc(NC(=O)OCCN2CCNC2=S)c([N+](=O)[O-])c1
inactive: dose: 50.0 mg/kg/injection, schedule: Q01DX009 (ip), vehicle: Klucel (hydroxypropylcellulose) (HPC) 95 % of control | [18] 87 % of control | [2] 93 % of control | [19] 91 % of control | [4] 91 % of control | [6] 96 % of control

CSc1ccc(OC(=O)Nc2cccc3ccccc23)cc1C
inactive: dose: 100.0 mg/kg/injection, schedule: Q04DX002 (ip), vehicle: Klucel (hydroxypropylcellulose) (HPC) 101 % of control | dose: 200.0 mg/kg/injection, schedule: Q04DX002 (ip), vehicle: Klucel (hydroxypropylcellulose) (HPC) 101 % of control | dose: 400.0 mg/kg/injection, schedule: Q04DX002 (ip), vehicle: Klucel (hydroxypropylcellulose) (HPC) 104 % of control

CCc1ccc(N=Nc2ccc(-c3ccc(NC(C)=O)cc3)cc2)cc1
inactive: [13] 94 % of control | [14] 102 % of control | [15] 105 % of control

O=C(/C=C(\CBr)c1ccc(-c2ccccc2)cc1)c1ccccc1
inactive: dose: 50.0 mg/kg/injection, schedule: Q01DX001 (ip), vehicle: saline with Tween-80 92 % of control | dose: 100.0 mg/kg/injection, schedule: Q01DX001 (ip), vehicle: saline with Tween-80 87 % of control and 89 % of control | dose: 200.0 mg/kg/injection, schedule: Q01DX001 (ip), vehicle: saline with Tween-80 91 % of control | dose: 400.0 mg/kg/injection, schedule: Q01DX001 (ip), vehicle: saline with Tween-80 94 % of control

Nc1ncnc2nc(N=Nc3ccc(S(N)(=O)=O)cc3)[nH]c12
inactive: [2] 108 % of control | [4] 102 % of control | [6] 100 % of control

COC(=O)c1ccc(OC(=O)Nc2ccc(F)c([N+](=O)[O-])c2)cc1
inactive: [18] 101 % of control | [19] 104 % of control

CCCCCCCCO/N=C\c1c2c(O)c3c(O)c(C)c4c(c3c1O)C(=O)C(C)(O/C=C\C(OC)C(C)C(OC(C)=O)C(C)C(O)C(C)C(O)C(C)/C=C\C=C(\C)C(=O)N2)O4 (stereo unspecified)
inactive: dose: 50.0 mg/kg/injection, schedule: Q04DX003 (ip), vehicle: water 96 % of control | [18] 106 % of control | dose: 100.0 mg/kg/injection, schedule: Q04DX003 (ip), vehicle: water 100 % of control | [19] 89 % of control | dose: 200.0 mg/kg/injection, schedule: Q04DX003 (ip), vehicle: water 98 % of control | dose: 400.0 mg/kg/injection, schedule: Q04DX003 (ip), vehicle: water 104 % of control

O=C(O)/C(=C\c1cc2c(cc1[N+](=O)[O-])OCO2)c1cc2c(cc1Br)OCO2
inactive: [12] 97 % of control | [13] 100 % of control | [14] 103 % of control | [15] 92 % of control

CCOC(Nc1ccc(Cl)cc1Cl)C(=O)c1ccccc1 (stereo unspecified)
inactive: [9] 97 % of control | [10] 101 % of control | [11] 101 % of control

Cc1nc2c(nc1C)C(=O)C=CC2=O
inactive: dose: 5.0 mg/kg/injection, schedule: Q01DX001 (ip), vehicle: carboxymethylcellulose (CMC) 100 % of control | dose: 10.0 mg/kg/injection, schedule: Q01DX001 (ip), vehicle: carboxymethylcellulose (CMC) 96 % of control | dose: 20.0 mg/kg/injection, schedule: Q01DX001 (ip), vehicle: carboxymethylcellulose (CMC) 94 % of control

O=C1CCC(N2C(=O)C3C4c5ccccc5C(c5ccccc54)C3C2=O)C(=O)N1 (stereo unspecified)
inactive: [3] 97 % of control | dose: 100.0 mg/kg/injection, schedule: Q04DX003 (ip), vehicle: saline 97 % of control | [5] 93 % of control | dose: 200.0 mg/kg/injection, schedule: Q04DX003 (ip), vehicle: saline 89 % of control

O=C(Nc1ccc2ccccc2c1)Nc1ccccc1F
inactive: [18] 93 % of control | [19] 104 % of control | dose: 400.0 mg/kg/injection, schedule: Q01DX009 (ip), vehicle: Klucel (hydroxypropylcellulose) (HPC) 93 % of control
